Experiment [1] has as its system MT4. Briefly: Anti-HIV activity to reduce […] cytopathic effect by 50% in MT-4 cells against HIV-1 IIIB. The class given is functional, cell-based. Particulars: Homo sapiens; call rule not given here.
For experiment [2], the system named is MT4. The experiment can be described thus: Cytotoxicity to reduce MT-4 cell viability by 50%. The experiment is classed as functional. Particulars: Homo sapiens.
Experiment [3] deals with MT4. The experiment can be described thus: Anti-HIV activity to reduce HIV-2-induced cytopathic effect by 50% in MT-4 cells against HIV-2 ROD. The class given is functional, cell-based. The conditions noted are these: Homo sapiens.
In experiment [4] the test system is MT4. The experiment can be described thus: Evaluated for cytotoxicity and the concentration required to reduce MT-4 cell viability by 50% was reported. Particulars: Homo sapiens. The experiment is classed as functional.
Experiment [5] relates to MT4. The experiment can be described thus: Concentration required to reduce HIV-1-induced cytopathic effect by 50% in MT-4 cells against HIV-1 IIIB. Particulars: Homo sapiens. The experiment is classed as functional, cell-based.
For experiment [6], the system named is MT4. Briefly: Concentration required to reduce HIV-1-induced cytopathic effect by 50% in MT-4 cells against HIV-2 ROD. The conditions noted are these: Homo sapiens. The class given is functional, cell-based.
Experiment [7] has as its system MT4. The experiment can be described thus: Anti-HIV activity to reduce […] cytopathic effect by 50% in MT-4 cells against HIV-1 IIIB; NA= not active. The experiment is classed as functional, cell-based, Homo sapiens.
In experiment [8] the test system is MT4. The experiment can be described thus: Evaluated for the inhibition of replication of HIV-1 IIIB or HIV-2 (ROD) in MT-4 cells by using [3H]dGTP radiolabeled substrate. Particulars: Homo sapiens. The experiment is classed as functional, cell-based.
Experiment [9] is described as follows: Selectivity index ([…] ratio)of the compound. The class given is functional.
The subject of experiment [10] is MT4. Briefly: Compound was evaluated for the inhibition of replication of HIV-1 IIIB or HIV-2 (ROD) in MT-4 cells by using [3H]dGTP radiolabeled substrate. The class given is functional, cell-based. The conditions noted are these: Homo sapiens.
In experiment [11] the test system is MT4. Briefly: Anti-HIV activity to reduce […] cytopathic effect by 50% in MT-4 cells against HIV-1 IIIB; NA=not active. The class given is functional, cell-based, Homo sapiens.
The subject of experiment [12] is MT4. The experiment can be described thus: Evaluated for the inhibition of replication of HIV-1 IIIB or HIV-2 (ROD) in MT-4 cells by using [3H]-dGTP as the radiolabeled substrate. The experiment is classed as functional, cell-based. The conditions noted are these: Homo sapiens.

Bounds are passed on as bounds.

With `Cc1cccnc1N1C(=O)CSC1c1c(F)cccc1F` (stereo not drawn), the values for the EC50 in experiment [1] and in experiment [3] were 53.5 µM and over 270 µM, respectively. For the same compound, the CC50 in experiment [2] was over 319 µM.
For `Cc1ccnc(N2C(=O)CSC2c2c(Cl)cccc2Cl)c1` (stereo not drawn), the values for the EC50 in [1] and in experiment [3] were 0.147 µM and over 368 µM, respectively. The same compound displayed a half-maximal cytotoxic concentration (CC50) in [2] of over 368 µM.
Regarding `O=C1CSC(c2c(F)cccc2F)N1c1ccccc1` (stereo not drawn), in experiment [4], the CC50 is over 429 µM. In addition, the results for the EC50 in experiment [5] and in experiment [6] were 2.3 µM and over 429 µM, respectively.
`O=C1CSC(c2c(Cl)cccc2Cl)N1c1cccnc1` (stereo not drawn): the concentration giving a half-maximal response (EC50) in experiment [1] was over 23 µM; in [7] it was “Not Active”. In experiment [2], this compound returned a half-maximal cytotoxic concentration (CC50) of 23.4 µM.
As to `Cc1cccc(N2C(=O)CSC2c2c(Cl)cccc2Cl)n1` (stereo not drawn), the EC50 in [1] was 0.044 µM; in experiment [3], 285 µM. For the same compound, half-maximal inhibition in experiment [8] (IC50) was put at 2.24 µM. Also, the cytotoxic concentration (CC50) in [2] came to 285 µM.
Turning to `O=C1CSC(c2c(F)cccc2F)N1c1ccccn1` (stereo not drawn), the concentration for a half-maximal effect (EC50) in experiment [1] is 0.855 µM; in experiment [3] it was over 427 µM. For the same compound, in [2], the CC50 was over 427 µM.
`Cc1ccc(N2C(=O)CSC2c2c(F)cccc2F)nc1` (stereo not drawn): the EC50 in experiment [1] is 5.13 µM; in experiment [3], over 171 µM. Half-maximal cytotoxicity in [2] (CC50) was put at 202 µM.
Take `O=C1CSC(c2c(Cl)cccc2Cl)N1c1ccccn1` (stereo not drawn): the EC50 in experiment [1] is 0.178 µM; in experiment [3] it was over 38.5 µM. Moreover, the cytotoxic concentration (CC50) in [2] amounted to 38.5 µM.
Turning to `O=C1CSC(c2c(F)cccc2F)N1c1cccnc1` (stereo not drawn), the concentration giving a half-maximal response (EC50) in [1] was 95.1 µM; in experiment [3], over 427 µM. This compound yielded a 50% cytotoxic concentration (CC50) in experiment [2] of over 427 µM.
As for `Cc1ccnc(N2C(=O)CSC2c2c(F)cccc2F)c1` (stereo not drawn), in experiment [9], the Ratio stood at 976. Besides, the values for the concentration for a half-maximal effect (EC50) in [1] and in experiment [3] were 0.248 µM and over 242 µM, respectively. In [8], this compound gave an IC50 of 2.84 µM. Further, the 50% cytotoxic concentration (CC50) in experiment [2] is 242 µM.
The compound `Cc1cccc(N2C(=O)CSC2c2c(F)cccc2F)n1` (stereo not drawn) came in with an IC50 in experiment [10] of 2.9 µM. The EC50 was 0.082 µM in experiment [1] and over 126 µM in experiment [3]. In experiment [2], this compound returned a half-maximal cytotoxic concentration (CC50) of 126 µM.
In experiment [1], `Clc1cccc(Cl)c1C1SCc2nc3ccccc3n21` (stereo not drawn) returned an EC50 of 0.589 µM. Moreover, in experiment [2], half-maximal cytotoxicity (CC50) was put at 9.43 µM.
Take `O=C1CSC(c2c(Cl)cccc2Cl)N1c1ccccc1` (stereo not drawn): the EC50 in experiment [1] was 0.401 µM; in experiment [3], over 39 µM. The CC50 in experiment [2] was determined as 38.1 µM.
With `Cc1cccnc1N1C(=O)CSC1c1c(Cl)cccc1Cl` (stereo not drawn), the results for the EC50 result in experiment [11] and in experiment [3] were “Not Active” and over 31.5 µM, respectively. Besides, the CC50 in experiment [2] worked out at 42.6 µM.
Take `Fc1cccc(F)c1C1SCc2nc3ccccc3n21` (stereo not drawn) [THIAZOLOBENZIMIDAZOLE]: in experiment [12], inhibition was half-maximal at 14.6 µM (IC50). Further, the EC50 in experiment [1] stood at 0.352 µM. In experiment [2], this compound yielded a CC50 of 19.2 µM.

(Values after ChEMBL document CHEMBL1134131, “Discovery of 2,3-diaryl-1,3-thiazolidin-4-ones as potent anti-HIV-1 agents” (Bioorg Med Chem Lett, 2001).)
